Entries after “also recorded” stand apart in the source; their conditions may differ. Where two headings read alike, the source gives them in different places.

In series [1] the test system is cotton bug (Dysdercus fasciatus). In words: Cotton bug test (topical application on II. stage larvae). The following applies: for AJH effect: adultoid symptoms. The series is classed as in vivo. How it is done:
(1) Cotton bug test A dilution series is prepared from the test compound with acetone and 0.2 μl of each dilution is topically applied onto the back part of larvae of the II. stage of growth with the aid of a Hamiltion syringe. The active ingredient is absorbed through the cuticula. The animals are kept in a large glass and fed with cotton grains and water. After adult shedding the surviving insects are observed for eventual adultoid symptoms, the egg-reproduction and the development of the ovules is evaluated too. (Remark: in the cotton bug test 50 insects are used).

Series [2] is described as follows: pK by potentiometrical titration. It counts as physicochemical. The note with it: 7-OH. The source says: (§1) This difference can be strengthened by deliberate direction of the reaction conditions to such an extent that selective mono-O-substitution can be carried out with excellent yields. It has been confirmed by various measurements and calculations (PMR, CMR, UV-VLS spectrophotometrical and potentiometric acid-base titrations, pK determinations, "all valence" CNDO quantumchemical calculations. electrostatical potential map calculation) that the hydroxy group in position 7 is the most reactive while the hydroxy groups in positions 5, 6 and 8, respectively, are less reactive.
(1.) is determined by potentiometrical titration and […]

A short description of series [3]: pK by spectrophotometrical measurement. The series is classed as physicochemical. The note with it: for pK7 (2.): 7-OH; for pKX (2.): second OH, X = 5, 6 or 8.
Source text: as §1
(2.) according to spectrophotometrical measurement).

Series [4] relates to Caenorhabditis elegans. In words: Caenorhabditis elegans test (treated NGM agar plate, young adults). It counts as in vivo. As for the experimental part:
(5) Caenorhabditis elegans 0.5 ml of the acetonous solution of the test compound is applied onto a NGM agar plate free from bacteria in a Petri dish. After the acetone has dried 25-30 young adults are placed on the plate. After 24 hours the surviving and killed insects are counted.

Series [5] relates to tomato root gall nematode (Meloidogyne incognita). In words: Tomato root gall nematode test (II. stage infective larvae, treated NGM agar plate). It counts as in vivo. The note with it: 72 hours; for mortality at 200 µg/mL / mortality at 400 µg/mL: Meloidogyne incognita. How it is done: (6) Root gall nematode The test is carried out on II. stage infective larvae, which are collected from the root of tomato plant, placed on a filter and incubated in sterile water at 25° C. The hatched larvae are collected every 24 hours and immediately placed onto the treated nutrient medium. As nutrient medium NGM agar plate free from bacterial is used. 0.5 ml of the acetoneous solution of the test compound is applied onto the surface of the plate in a Petri-dish. After the acetone has evaporated 5 μl of the larva suspension is applied onto each plate. After 72 hours the surviving and killed insects are counted.

Series [6] deals with insects. The following applies: compared with P2; listed as P3; cited from earlier work.
The test system of series [7] is cabbage butterfly (Pieris brassicae). The series can be described thus: Cabbage butterfly test (sprayed cabbage seedlings). The series is classed as in vivo. The following applies: 50 EC. As for the experimental part: From the 50 EC of the test compound a diluted series is prepared with water and the host seedlings (cabbage) are sprayed with this composition until the spray runs down. The spray is allowed to dry whereupon 20 young larvae of the II. stage are placed on each treated plant and the seedlings are kept under so-called "long-day" illumination (18 hours of illumination and 6 hours of darkness). The nibbled plants are replaced by similarly sprayed plants if necessary. The killing rate of the insects, the growth rate of the larvae and the morphological deformations of the surviving nymphs and adults are registered.
In the 50 EC compositions the concentration of compounds 23 and 25 amounts to 0.01% and that of the other compounds to 0.1%.

Series [8] deals with mustard beetle. The series can be described thus: Mustard beetle test (sprayed mustard seedlings). The note with it: concentration 1%. The series is classed as in vivo. As for the experimental part: Two weeks' old mustard seedlings are sprayed with a solution of 0.1 g of the test compound, 0.5 ml of dimethyl sulfoxide, and 10 μl of 50 EC composition in 10 ml of water. After the spray is dried, 20 mustard larvae of the II. stage are placed on each plant. The sprayed plants are charged every second day. The evaluation is based on the number of the imagos hatching from the nymphs.

The test system of series [9] is domestic fly (Musca domestica). The series can be described thus: Domestic fly test (larvae in treated nutrient medium). It counts as in vivo. The following applies: 0.1% related to milk, 0.05% related to total nutrient medium. How it is done: The fly larvae are grown on a nutrient medium of the following composition: 2 ml of milk; 2 ml of water; 2 g of wheat bran; 0.1 ml of saturated alcoholic nipagin solution.
The nutrient medium is filled into cylindrical glass vials (30×100 mm) and 25 fly larvae are raised in each vial. The test compound is dissolved in milk; the end concentration (related to milk) amounts to 0.1% which corresponds to 0.05% (related to the total nutrient medium). The solution of the active ingredient is admixed with the nutrient medium whereupon […] of domestic fly larvae of the I. stage are placed into each vial and the vials are closed with a hard cotton-wool stopper. The nymphs emerging from the larvae are collected in each vial, counted and kept in a Petri dish (diameter 25 mm) until flies hatch from the nymphs. The hatched flies are counted.

Setting [10] is: 200 μg/ml, first test, read-out: mortality 1.
Setting [11] is: 200 μg/ml, second test, read-out: mortality 2.
Setting [12] is: 200 μg/ml, read-out: mortality Average.
[13] abbreviates: 400 μg/ml, first test, read-out: mortality 1.
The mark [14] stands for this setting: 400 μg/ml, second test, read-out: mortality 2.
[15] abbreviates: 400 μg/ml, read-out: mortality Average.
[16] abbreviates: Pieris brassicae, 0.1%, read-out: Killing rate of larvae.
[17] abbreviates: Caenorhabditis elegans, 24 h, read-out: Lethality.

As to `CC(C)=CCOc1cc2c(cc1OCC=C(C)C)OC(C)(C)C=C2` [Compound 10], the LD50 in series [1] is reported as 0.6 μg/insect.

Regarding `CC1(C)CC(=O)c2c(O)cc(O)cc2O1` [5-OH 7-OH 4-OH, 5,7-dihydroxy-2,2-dimethyl-4-chromanone], in series [2], the “pK7 (1.)” value is 7.4. Further, in series [3], the “pK7 (2.)” value is given as 7.0 and the “pKX (2.)” value is reported as 11.6.

For `CCC(C)Oc1cc2c(cc1OC)C=CC(C)(C)O2` (centres unmarked) [Compound 20], in [1], the LD50 came out at 0.4 μg/insect and the AJH effect turned out to be 0.1 μg/insect.

Compound `CCOc1cc2c(cc1OC)C=CC(C)(C)O2` [Compound 3, 6-methoxy-7-ethoxy-2,2-dimethyl-2H-chromene, reference compound] gave an LD50 in series [1] of 0.5 μg/insect. Also, in series [1], the Sterilizing effect amounted to 10 μg/insect. Moreover, the AJH effect in series [1] turned out to be 10 μg/insect. In addition, the entries for the “Size of descendant population” value in series [4] (200 μg/ml) and in series [4] (400 μg/ml) were “some descendants” and “no descendants”, respectively. Moreover, in series [5] (400 μg/ml), the Nematocidal effect entry is listed as “strong”. The mortality at 200 µg/mL was 24% in series [5] (setting [10]), 20% in [5] (setting [11]) and 22% in series [5] (setting [12]). For the same compound, the mortality at 400 µg/mL in series [5] (setting [13]) is 100%; in series [5] (setting [14]), 95%; in series [5] (setting [15]), 97%. For the same compound, in series [6], the “effectiveness/activity relative to P2” value is on record as “ten times more active; also recorded: ten times more effective”.

In turn, `COc1cc2c(cc1OC)OC(C)(C)C=C2` [Compound 1, 6,7-dimethoxy-2,2-dimethyl-2H-chromene, reference compound] had an LD50 in series [1] of 0.6 μg/insect. In addition, in [1], the Sterilizing effect came out at 10 μg/insect. Moreover, in series [1], the AJH effect worked out at 1 μg/insect. The “Size of descendant population” value in series [4] (200 μg/ml) and in [4] (400 μg/ml) was “no descendants” in each case. Also, the Nematocidal effect entry in series [5] (200 μg/ml) and in series [5] (400 μg/ml) was “strong” throughout. Besides, the mortality at 200 µg/mL in series [5] (setting [10]), in series [5] (setting [11]) and in series [5] (setting [12]) was 76% throughout. Moreover, the mortality at 400 µg/mL came out at 98% in series [5] (setting [13]), 95% in [5] (setting [14]) and 97% in series [5] (setting [15]).

As to `CCCOc1ccc2c(c1OC)OC(C)(C)C=C2` [Compound 51], the pest or weed control at 0.1 % in series [7] (setting [16]) worked out at 100%. Further, the “Survival, adults” value in [8] is listed as 45%. In series [9], this compound gave a Survival adult of 0% and a Survival nymph of 12%.

With `CC1(C)CC(=O)c2cc(O)c(O)cc2O1` [6-OH 7-OH 4-H, 6,7-dihydroxy-2,2-dimethyl-4-chromanone], the “pK7 (1.)” value in series [2] was 6.8. Further, in series [3], the “pK7 (2.)” value came out at 6.9 and the “pKX (2.)” value worked out at 11.4.

As to `CC1(C)CC(=O)c2ccc(O)c(O)c2O1` [8-OH 7-OH 4-H, 7,8-dihydroxy-2,2-dimethyl-4-chromanone], the “pK7 (1.)” value in series [2] is reported as 7.2. In addition, in series [3], the “pK7 (2.)” value came out at 7.2 and the “pKX (2.)” value was 11.6.

On to `COc1cc2c(cc1OC(C)C)OC(C)(C)C=C2` [Compound 8], for which, in [1], the LD50 is listed as 0.45 μg/insect, the Sterilizing effect is 0.2 μg/insect and the AJH effect is on record as 1 μg/insect. In series [4] (200 μg/ml), the “Size of descendant population” value is reported as “reduced”. Further, the “Size of descendant population” value in series [4] (400 μg/ml) was “no descendants”. Also, in series [4] (setting [17]), the mortality at 200 µg/mL turned out to be 70% and the mortality at 400 µg/mL was found to be 80%.

As for `CCOc1ccc2c(c1OC)OC(C)(C)C=C2` [Compound 50], the figures for the Survival adult in series [7] (0.1%) and in series [9] were 24% and 4.2%, respectively. In addition, the Survival nymph in series [7] (0.1%) is 24%; in series [9], 5.4%. Further, the pest or weed control at 0.1 % in series [7] (setting [16]) stood at 76%. For the same compound, the “Size of descendant population” value in [4] (200 μg/ml) was “reduced”; in series [4] (400 μg/ml) it was “no descendants”.

`Cc1cc(OCC(C)C)cc2c1C=CC(C)(C)O2` [Compound 42]: in series [7] (setting [16]), the pest or weed control at 0.1 % is 100%. Besides, in [8], the “Survival, adults” value is given as 27%. In series [9], this compound had a Survival adult of 25.5% and a Survival nymph of 45.4%.

For `COc1cc2c(cc1OCC(C)C)OC(C)(C)C=C2` [Compound 21], in [1], the LD50 is 0.4 μg/insect.

For the compound `COc1ccc2c(c1)OC(C)(C)C=C2` [Compound 23, 7-methoxy-2,2-dimethyl-2H-chromene, reference compound], the Survival adult in series [7] (0.01%) is 50%; in series [9], 33.3%. Besides, the Survival nymph is 59% in [7] (0.01%) and 100% in series [9]. Further, in [7] (Pieris brassicae, 0.01%, read-out: Killing rate of larvae), the pest or weed control at 0.01 % came out at 41%. Also, the results for the “Size of descendant population” value in [4] (200 μg/ml) and in series [4] (400 μg/ml) were “reduced” and “no descendants”, respectively.

Values taken from US4968819A, “Process for the preparation of chromene derivatives” (Alkaloida Vegyeszeti Gyar, priority 1983, dated 1990).
